Data: patent US20220117913A1, “DEZOCINE DERIVATIVE AND MEDICAL USE THEREOF” (YANGTZE RIVER PHARMACEUTICAL GROUP CO., LTD., priority 2019, published 2022)
Where a name gives a salt, the structure may show the parent alone. Read-outs that look alike come from different tables or passages of the source.

Legend:
δ opioid receptor = δ opioid receptor (Homo sapiens, UniProt P41143); test: radioisotope ligand competitive binding assay, δ opioid receptor (DOR)
Excerpt: (§1) Through the radioisotope ligand competitive binding assay, IC50 of the compound was used as an indicator to evaluate the affinity of the compound to κ and δ opioid receptors.
(§2) (1) Reagents • The cell membrane was extracted from stably transfected cells constructed by WuXi AppTec, Shanghai. • 3H-diprenophrine (PerkinElmer, Cat: NET1121250UC, Lot: 2143599) • 3H-DAMGO (PerkinElmer, Cat: NET902250UC, Lot: 2139100) • 3H-DADLE (PerkinElmer, Cat: NET648250UC, Lot: 2060549) • Tris base (Sigma, Cat: T6066-1KG), prepare 1M stock and adjust pH to 7.4. • 0.5M EDTA (Invitrogen, Cat: 15575-038) • 1M MgCl2 (Sigma, Cat: M1028-100 ml) • PEI (Poly ethyleneimine) (Sigma, Cat: P3143) • Microscint 20 cocktail (PerkinElmer, Cat: 6013329) • Naltrindole (Sigma, Cat; N115) • (±)trans-U-50488 (Sigma, Cat: D8040) • DAMGO (Sigma, Cat: E7384)
(§3) (1) 1 μL of the test compounds, negative control (i.e., DMSO) and positive control (i.e., non-specific binding well compound), after being prepared, were respectively transferred to a 96-well plate;
(§4) (2) 99 μL of the prepared opioid receptor membrane protein was added to each well of the 96-well plate containing 1 μL of the compound;
(§5) (3) 100 μL of 2× corresponding radioisotope ligand was added to each well;
(§6) (4) The plate was placed on a shake and incubated at room temperature for 1 hour;
(§7) (5) Each well of the GF/C plate was soaked with 50 μL of 0.3% PEI for at least half an hour in advance;
(§8) (6) After the incubation was finished, the GF/C plate was washed with plate washing buffer once by using Harvest. Then, the cell membranes in the 96-well plate were collected onto the GF/C plate using Harvest, and the GF/C plate was washed four times with the plate washing buffer, each time about 250 μL;
(§9) (7) The GF/C plate was placed in an oven at 50° C. for 1 hour;
(§10) (8) The bottom of the GF/C plate was sealed with a plate sealing film, 50 μL of Microscint-20 scintillation fluid was added to each well, and then the plate was sealed with a transparent sealing film for microplate;
(§11) (9) The radioactive signal value CPM was read using MicroBeta2;
(§12) (10) The data was analyzed with Prism 5. The percentage inhibition rate was calculated with the calculation formula: % Inh=(1-Background subtracted Assay value/Background subtracted HC value)*100.

μ opioid receptor = μ opioid receptor (Homo sapiens, UniProt P35372); test: radioisotope ligand competitive binding assay, μ opioid receptor (MOR)
κ opioid receptor = κ opioid receptor (Homo sapiens, UniProt P41145); test: radioisotope ligand competitive binding assay, κ opioid receptor (KOR)
Excerpt: as §1, §2, §3, §4, §5, §6, §7, §8, §9, §10, §11, §12

[1] = pharmacokinetic investigation of intravenous administration in mice; format: in vivo; conditions: mouse; male mice, intravenous injection, plasma
Procedure: Male mice were injected intravenously with the compound of the present disclosure, and the concentration of the unchanged compound in plasma and the concentration of the metabolite of dezocine hydrochloride were measured after the administration.

[2] = [3H]-DADLE 0.5 nM, cell membrane of stably transfected cells, read-out: δ IC50
[3] = [3H]DAMGO 0.5 nM, cell membrane of stably transfected cells, read-out: μ IC50
[4] = [3H]Diprenorphine 0.3 nM, cell membrane of stably transfected cells, read-out: κ IC50

CCN[C@H]1[C@H]2CCCCC[C@]1(C)c1cc(OC)ccc1C2 [Hydrochloride of compound 2]
IC50 (δ opioid receptor; [2]): > 10000 nM
IC50 (μ opioid receptor; [3]): 100 to 1000 nM
IC50 (κ opioid receptor; [4]): 1000 to 10000 nM

CCCCN[C@H]1[C@H]2CCCCC[C@]1(C)c1cc(OC)ccc1C2 [Hydrochloride of compound 4]
IC50 (δ opioid receptor; [2]): 1000 to 10000 nM
IC50 (μ opioid receptor; [3]): 10 to 100 nM
IC50 (κ opioid receptor; [4]): 1000 to 10000 nM

CCCN(C)[C@H]1[C@H]2CCCCC[C@]1(C)c1cc(OC)ccc1C2 [Hydrochloride of compound 14]
IC50 (δ opioid receptor; [2]): > 10000 nM
IC50 (μ opioid receptor; [3]): 100 to 1000 nM
IC50 (κ opioid receptor; [4]): 1000 to 10000 nM

COc1ccc2c(c1)[C@@]1(C)CCCCC[C@@H](C2)[C@@H]1NCc1ccccc1 [Hydrochloride of compound 9]
IC50 (δ opioid receptor; [2]): 1000 to 10000 nM
IC50 (μ opioid receptor; [3]): 100 to 1000 nM
IC50 (κ opioid receptor; [4]): 100 to 1000 nM

CN[C@H]1[C@H]2CCCCC[C@]1(C)c1cc(OC)ccc1C2 [Hydrochloride of compound 1]
IC50 (δ opioid receptor; [2]): > 10000 nM
IC50 (μ opioid receptor; [3]): 100 to 1000 nM
IC50 (κ opioid receptor; [4]): 1000 to 10000 nM

C[C@@]12CCCCC[C@@H](Cc3ccc(OCc4ccccc4)cc31)[C@@H]2NCc1ccccc1 [Hydrochloride of compound 39]
IC50 (δ opioid receptor; [2]): 100 to 1000 nM
IC50 (μ opioid receptor; [3]): < 10 nM
IC50 (κ opioid receptor; [4]): 100 to 1000 nM

CCCCN(C)[C@H]1[C@H]2CCCCC[C@]1(C)c1cc(O)ccc1C2 [Hydrochloride of compound 32]
IC50 (δ opioid receptor; [2]): 10 to 100 nM
IC50 (μ opioid receptor; [3]): < 10 nM
IC50 (κ opioid receptor; [4]): 10 to 100 nM

COc1ccc2c(c1)[C@@]1(C)CCCCC[C@@H](C2)[C@@H]1NCCc1ccc(Cl)c(Cl)c1 [Hydrochloride of compound 10]
IC50 (δ opioid receptor; [2]): > 10000 nM
IC50 (μ opioid receptor; [3]): 100 to 1000 nM
IC50 (κ opioid receptor; [4]): 1000 to 10000 nM

C[C@@]12CCCCC[C@@H](Cc3ccc(O)cc31)[C@@H]2N (relative stereo) [dezocine hydrochloride, (−)-[5R-(5a,11a,13S*)]-13-amino-5,6,7,8,9,10,11,12-octahydro-5-methyl-5,11-methylene benzocyclodecen-3-ol, reference compound]
half-life [1]: 54.2 min

CCOc1ccc2c(c1)[C@@]1(C)CCCCC[C@@H](C2)[C@@H]1NC [Hydrochloride of compound 37]
IC50 (δ opioid receptor; [2]): > 10000 nM
IC50 (μ opioid receptor; [3]): 1000 to 10000 nM
IC50 (κ opioid receptor; [4]): 1000 to 10000 nM

CN[C@H]1[C@H]2CCCCC[C@]1(C)c1cc(OCc3ccccc3)ccc1C2 [Hydrochloride of compound 38]
IC50 (δ opioid receptor; [2]): 1000 to 10000 nM
IC50 (μ opioid receptor; [3]): 10 to 100 nM
IC50 (κ opioid receptor; [4]): 1000 to 10000 nM

COc1ccc2c(c1)[C@@]1(C)CCCCC[C@@H](C2)[C@@H]1N(C)Cc1ccccc1 [Hydrochloride of compound 17]
IC50 (δ opioid receptor; [2]): > 10000 nM
IC50 (μ opioid receptor; [3]): 100 to 1000 nM
IC50 (κ opioid receptor; [4]): > 10000 nM

COc1ccc2c(c1)[C@@]1(C)CCCCC[C@@H](C2)[C@@H]1NC(C)C [Hydrochloride of compound 6]
IC50 (δ opioid receptor; [2]): > 10000 nM
IC50 (μ opioid receptor; [3]): 1000 to 10000 nM
IC50 (κ opioid receptor; [4]): 1000 to 10000 nM

COc1ccc2c(c1)[C@@]1(C)CCCCC[C@@H](C2)[C@@H]1NCCc1ccccc1 [Hydrochloride of compound 8]
IC50 (δ opioid receptor; [2]): > 10000 nM
IC50 (μ opioid receptor; [3]): 10 to 100 nM
IC50 (κ opioid receptor; [4]): > 10000 nM

COc1ccc2c(c1)[C@@]1(C)CCCCC[C@@H](C2)[C@@H]1N1CCCC1 [Hydrochloride of compound 12]
IC50 (δ opioid receptor; [2]): > 10000 nM
IC50 (μ opioid receptor; [3]): 1000 to 10000 nM
IC50 (κ opioid receptor; [4]): > 10000 nM

C[C@@]12CCCCC[C@@H](Cc3ccc(OCc4ccccc4)cc31)[C@@H]2N [Hydrochloride of compound 36]
IC50 (δ opioid receptor; [2]): 1000 to 10000 nM
IC50 (μ opioid receptor; [3]): 10 to 100 nM
IC50 (κ opioid receptor; [4]): 1000 to 10000 nM

CCOc1ccc2c(c1)[C@@]1(C)CCCCC[C@@H](C2)[C@@H]1N [Hydrochloride of compound 35]
IC50 (δ opioid receptor): > 10000 nM
IC50 (μ opioid receptor): 100 to 1000 nM
IC50 (κ opioid receptor): > 10000 nM

C[C@@]12CCCCC[C@@H](Cc3ccc(O)cc31)[C@@H]2NCC1CC1 [Hydrochloride of compound 24]
IC50 (δ opioid receptor; [2]): 1000 to 10000 nM
IC50 (μ opioid receptor; [3]): 10 to 100 nM
IC50 (κ opioid receptor; [4]): 100 to 1000 nM

CC(C)N[C@H]1[C@H]2CCCCC[C@]1(C)c1cc(O)ccc1C2 [Hydrochloride of compound 23]
IC50 (δ opioid receptor; [2]): 1000 to 10000 nM
IC50 (μ opioid receptor; [3]): 10 to 100 nM
IC50 (κ opioid receptor; [4]): 100 to 1000 nM

C[C@@]12CCCCC[C@@H](Cc3ccc(O)cc31)[C@@H]2N1CCCC1 [Hydrochloride of compound 29]
IC50 (δ opioid receptor; [2]): 1000 to 10000 nM
IC50 (μ opioid receptor; [3]): 10 to 100 nM
IC50 (κ opioid receptor; [4]): 1000 to 10000 nM

CCCCCN(C)[C@H]1[C@H]2CCCCC[C@]1(C)c1cc(O)ccc1C2 [Hydrochloride of compound 33]
IC50 (δ opioid receptor; [2]): 100 to 1000 nM
IC50 (μ opioid receptor; [3]): < 10 nM
IC50 (κ opioid receptor; [4]): 100 to 1000 nM

CCN[C@H]1[C@H]2CCCCC[C@]1(C)c1cc(O)ccc1C2 [Hydrochloride of compound 19]
IC50 (δ opioid receptor; [2]): 1000 to 10000 nM
IC50 (μ opioid receptor; [3]): < 10 nM
IC50 (κ opioid receptor; [4]): 10 to 100 nM

COc1ccc2c(c1)[C@@]1(C)CCCCC[C@@H](C2)[C@@H]1NCC1CC1 [Hydrochloride of compound 7]
IC50 (δ opioid receptor; [2]): > 10000 nM
IC50 (μ opioid receptor; [3]): 100 to 1000 nM
IC50 (κ opioid receptor; [4]): 100 to 1000 nM

COc1ccc2c(c1)[C@@]1(C)CCCCC[C@@H](C2)[C@@H]1N(C)CCc1ccccc1 [Hydrochloride of compound 13]
IC50 (δ opioid receptor; [2]): > 10000 nM
IC50 (μ opioid receptor; [3]): 100 to 1000 nM
IC50 (κ opioid receptor; [4]): > 10000 nM

C[C@@]12CCCCC[C@@H](Cc3ccc(O)cc31)[C@@H]2NCCc1ccc(Cl)c(Cl)c1 [Hydrochloride of compound 27]
IC50 (δ opioid receptor; [2]): 100 to 1000 nM
IC50 (μ opioid receptor; [3]): 10 to 100 nM
IC50 (κ opioid receptor; [4]): 10 to 100 nM

COc1ccc2c(c1)[C@@]1(C)CCCCC[C@@H](C2)[C@@H]1N(C)C [Hydrochloride of compound 11]
IC50 (δ opioid receptor; [2]): > 10000 nM
IC50 (μ opioid receptor; [3]): 100 to 1000 nM
IC50 (κ opioid receptor; [4]): > 10000 nM

CCCN(C)[C@H]1[C@H]2CCCCC[C@]1(C)c1cc(O)ccc1C2 [Hydrochloride of compound 31]
IC50 (δ opioid receptor; [2]): 10 to 100 nM
IC50 (μ opioid receptor; [3]): < 10 nM
IC50 (κ opioid receptor; [4]): 100 to 1000 nM

CCCCCN(C)[C@H]1[C@H]2CCCCC[C@]1(C)c1cc(OC)ccc1C2 [Hydrochloride of compound 16]
IC50 (δ opioid receptor; [2]): > 10000 nM
IC50 (μ opioid receptor; [3]): 100 to 1000 nM
IC50 (κ opioid receptor; [4]): > 10000 nM

CN(C)[C@H]1[C@H]2CCCCC[C@]1(C)c1cc(O)ccc1C2 [Hydrochloride of compound 28]
IC50 (δ opioid receptor; [2]): 1000 to 10000 nM
IC50 (μ opioid receptor; [3]): < 10 nM
IC50 (κ opioid receptor; [4]): 100 to 1000 nM

CN[C@H]1[C@H]2CCCCC[C@]1(C)c1cc(O)ccc1C2 [Hydrochloride of compound 18]
IC50 (δ opioid receptor; [2]): 1000 to 10000 nM
IC50 (μ opioid receptor; [3]): 10 to 100 nM
IC50 (κ opioid receptor; [4]): 100 to 1000 nM

CN(Cc1ccccc1)[C@H]1[C@H]2CCCCC[C@]1(C)c1cc(OCc3ccccc3)ccc1C2 [Hydrochloride of compound 40]
IC50 (δ opioid receptor; [2]): 10 to 100 nM
IC50 (μ opioid receptor; [3]): < 10 nM
IC50 (κ opioid receptor; [4]): < 10 nM

CN(CCc1ccccc1)[C@H]1[C@H]2CCCCC[C@]1(C)c1cc(O)ccc1C2 [Hydrochloride of compound 30]
IC50 (δ opioid receptor; [2]): 10 to 100 nM
IC50 (μ opioid receptor; [3]): < 10 nM
IC50 (κ opioid receptor; [4]): 10 to 100 nM

CCCN[C@H]1[C@H]2CCCCC[C@]1(C)c1cc(OC)ccc1C2 [Hydrochloride of compound 3]
IC50 (δ opioid receptor; [2]): > 10000 nM
IC50 (μ opioid receptor; [3]): 10 to 100 nM
IC50 (κ opioid receptor; [4]): 100 to 1000 nM
